What is called IC50 is the concentration needed to halve the response being measured. Low values mean inhibition by little substance, high ones a need for much substance.

The target of this test is human MRGPRD (Homo sapiens, UniProt Q8TDS7). Put plainly: MRGPRD antagonist activity, IP-One HTRF assay in CHO cells stably expressing human MRGPRD (versus 100 μM β-Alanine agonist). In kind it is cell-based. As to the method: Chinese Hamster Ovary (CHO) cells stably expressing human MRGPRD (Eurofins, San Diego CA) were plated in a 384-well plate at 20,000 cells per well in 12 μL of Optimem (Fisher Scientific 11-058-021). Plates were kept in the incubator at 37° C. overnight. Antagonists were solubilized at a concentration of 10 mM in DMSO, and the agonists were solubilized to stock concentrations of either 50 mM in H2O (β-Alanine) or 10 mM in DMSO (all others) and then diluted in assay buffer (final concentrations of 5.7 mM Tris-HCl, 43 mM NaCl, 50 mM LiCl, pH=8). The concentration of DMSO was normalized across the plate. Antagonists were added to the plate using a Tecan D300 Digital Dispenser at nanoliter/picoliter volumes and 2 μL of agonists in assay buffer were added to each well for a final assay volume of 14 μL. Plates were covered and incubated for 1 h at 37° C. and then for 1 h at room temperature. IP-1 standards and HTRF detection reagents were added according to an IP-One—Gq Kit purchased from Cisbio (part number 621PAPEJ) and incubated in the dark for 1 h at room temperature. Assay plates were read on either a Molecular Devices SpectraMax iD5 plate reader or a BMG ClarioStar plate reader. The HTRF ratio was calculated form the raw data and graphed using GraphPad Prism to calculate IC50 values. Data are expressed as average IC50 values and average percent antagonism calculated as a percent of the maximum efficacy response. For these studies, the variability of the data was assessed by determining the standard error of mean (SEM).
Sequence of human MRGPRD (Q8TDS7 whole entry): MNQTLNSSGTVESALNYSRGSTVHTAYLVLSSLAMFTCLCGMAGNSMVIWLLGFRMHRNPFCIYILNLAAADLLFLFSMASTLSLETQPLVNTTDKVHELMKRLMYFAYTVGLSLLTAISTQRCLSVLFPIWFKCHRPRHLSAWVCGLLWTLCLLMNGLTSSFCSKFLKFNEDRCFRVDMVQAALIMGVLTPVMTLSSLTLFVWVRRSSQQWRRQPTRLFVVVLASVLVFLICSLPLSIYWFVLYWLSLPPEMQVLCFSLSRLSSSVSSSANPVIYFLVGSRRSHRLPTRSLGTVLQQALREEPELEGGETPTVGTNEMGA
The activity ranges are denoted as follows: “+++++” denotes antagonist activity<100 nM; “++++” denotes antagonist activity between 100 and 500 nM; “+++” denotes activity between 500 and 1000 nM; “++” denotes activity between 1000 and 3000 nM; and “+” denotes activity>3000 nM.

Each structure is given as a SMILES string.

Consider `CCc1ccc(-n2nnc(C(=O)Nc3ccncc3)c2C2CC2)cc1-c1cccc(C(C)=O)c1` [Compound 7-317], for which the concentration for half-maximal inhibition (IC50) was in the range of 1000 to 3000 nM. Next, `CCn1nc(C)c(-c2ccc(-n3nnc(C(=O)NC4(c5cccnc5)CC4)c3C3CC3)cc2)c1C` [Compound 19-2, 5-cyclopropyl-1-(4-(1-ethyl-3,5-dimethyl-1H-pyrazol-4-yl)phenyl)-N-(1-(pyridin-3-yl)cyclopropyl)-1H-1,2,3-triazole-4-carboxamide]: 100 to 500 nM.

Compound `Cc1cc(NC(=O)c2nnn(-c3ccc(-c4c(C)nn(CC(F)(F)F)c4C)cc3F)c2C2CC2)ccn1` [Compound 7-222] yielded an IC50 of less than 100 nM.

As for `Cc1cc(NC(=O)c2nnn(-c3ccc(-c4c(C)nn(C)c4C)cc3F)c2C2CC2)ccn1` [Compound 7-220], the IC50 was less than 100 nM. Next, `O=C(NCc1cn[nH]c1)c1nnn(-c2ccc(-c3ccccc3)cc2)c1C1CC1` [Compound 14-36]: 1000 to 3000 nM. Next, `Cc1cc(CNC(=O)c2nnn(-c3ccc(-c4ccccc4)cc3)c2C2CC2)nn1C` [Compound 14-55]: 1000 to 3000 nM. Next, `COc1ccc(C2(NC(=O)c3nnn(-c4ccc(-c5ccc(C(N)=O)cc5)cc4)c3C3CC3)CC2)cn1` [Compound 18-7]: 1000 to 3000 nM. `O=C(Nc1ccncc1)c1nnn(-c2cccc(-c3ccc[nH]3)c2)c1C1CC1` [Compound 7-296] returned an IC50 of 1000 to 3000 nM. Next, `Cc1nn(C)c(C)c1-c1ccc(-n2nnc(C(=O)Nc3ccncc3)c2C2CC2)c(C(F)(F)F)c1` [Compound 7-300]: 1000 to 3000 nM.

Consider `Cc1nn(C)c(C)c1-c1ccc(-n2nnc(C(=O)Nc3ccccn3)c2C(C)C)cc1` [Compound 17-25], for which the IC50 fell in the range of 100 to 500 nM. Next, `CC(C)c1c(C(=O)NC2(c3cccnc3)CC2)nnn1-c1ccc(-c2ccccc2)cc1` [Compound 18-30]: greater than 3000 nM; `O=C(Nc1cccc(-n2cncn2)c1)c1nnn(-c2ccc(-c3ccccc3)cc2)c1C1CC1` [Compound 14-24]: 500 to 1000 nM; `Cc1ccc(CNC(=O)c2nnn(-c3ccc(-c4c(C)nn(C)c4C)cn3)c2C2CC2)cn1` [Compound 19-1]: 500 to 1000 nM. The result for `O=C(NCC1CCCO1)c1nnn(-c2ccc(-c3ccccc3)cc2)c1C1CC1` (centres unmarked) [Compound 14-7] reads greater than 3000 nM; that for `NS(=O)(=O)c1cccc(-c2ccc(-n3nnc(C(=O)Nc4ccncc4)c3C3CC3)cc2)c1` [Compound 7-135], 500 to 1000 nM. `COCn1cc(-c2cccc(-n3nnc(C(=O)Nc4ccncc4)c3C3CC3)c2)cn1` [Compound 7-301] registered an IC50 of 1000 to 3000 nM. Next, `CC(NC(=O)c1nnn(-c2ccc(-c3ccccc3)cc2)c1C1CC1)c1cccnc1` (centres unmarked) [Compound 14-49]: 1000 to 3000 nM; `Cc1cc(NC(=O)c2nnn(C3CC=C(c4ccc(CC#N)cc4)CC3)c2C2CC2)ccn1` (centres unmarked) [Compound 12-7]: 1000 to 3000 nM.

Compound `Cc1nn(C)c(C)c1-c1ccc(-n2nnc(C(=O)Nc3ccncc3)c2C2CC2)cn1` [Compound 7-232] displayed an IC50 of 100 to 500 nM. For the compound `O=C(Nc1ccncc1)c1nnn(-c2ccc(-c3cc(CO)[nH]n3)cc2)c1C1CC1` [Compound 7-211], the IC50 lay within 1000 to 3000 nM. The result for `O=C(Nc1ccncc1)c1nnn(-c2ccc(-c3ccncc3)cc2)c1C1CC1` [Compound 7-178] reads 1000 to 3000 nM; that for `COc1ccc(-c2ccc(-n3nnc(C(=O)Nc4ccnc(C)c4)c3C3CC3)cc2)cn1` [Compound 15-14], 100 to 500 nM; that for `CCn1cc(-c2ccc(-n3nnc(C(=O)Nc4ccncc4)c3C3CC3)cc2)c(C)n1` [Compound 7-189], 1000 to 3000 nM. In the case of `CCn1cc(CNC(=O)c2nnn(-c3ccc(-c4ccccc4)cc3)c2C(C)C)cn1` [Compound 17-13], the IC50 lay in the range of 100 to 500 nM. Next, `Cc1nn2ccccc2c1-c1ccc(-n2nnc(C(=O)NC3(c4cccnc4)CC3)c2C2CC2)cc1` [Compound 19-3]: 500 to 1000 nM; `Cc1ccc(-n2nnc(C(=O)Nc3cc(C)nc(C)c3)c2C2CC2)cc1` [Compound 1-6]: 500 to 1000 nM. The result for `Cc1cc(-c2ccc(-n3nnc(C(=O)Nc4ccncc4)c3C3CC3)cc2)sn1` [Compound 7-191] reads 1000 to 3000 nM; that for `CC(C)Oc1ccccc1-c1ccc(-n2nnc(C(=O)Nc3ccncc3)c2C2CC2)cc1` [Compound 7-160], 500 to 1000 nM; that for `COc1cc(-n2nnc(C(=O)Nc3ccncc3)c2C2CC2)ccc1-c1c(C)nn(C)c1C` [Compound 7-275], 500 to 1000 nM. In turn, `Cc1nn(C)c(C)c1-c1ccc(-n2nnc(C(=O)Nc3ccncc3)c2C2CC2)c(OC(F)(F)F)c1` [Compound 7-239] yielded an IC50 of 100 to 500 nM. Compound `CCn1cc(CNC(=O)c2nnn(-c3ccc(-c4c(C)nn5ccccc45)cc3)c2C(C)C)cn1` [Compound 10-11] had an IC50 of less than 100 nM. In turn, `Cc1cc(NC(=O)c2nnn(-c3cccc(-c4ccn(C5CC5)n4)c3)c2C2CC2)ccn1` [Compound 7-233] yielded an IC50 of 100 to 500 nM. The result for `O=C(NCCc1cccs1)c1nnn(-c2ccc(-c3ccccc3)cc2)c1C1CC1` [Compound 14-67] reads 1000 to 3000 nM; that for `COc1ccccc1-c1ccc(-n2nnc(C(=O)Nc3ccncc3)c2C2CC2)cc1` [Compound 7-112], 100 to 500 nM; that for `Cn1ccnc1-c1ccc(-n2nnc(C(=O)Nc3ccncc3)c2C2CC2)cc1` [Compound 7-163], 1000 to 3000 nM. Next, `O=C(Nc1ccncc1)c1nnn(-c2ccc(-c3ccccc3Cl)cc2)c1C1CC1` [Compound 7-145]: 500 to 1000 nM; `O=C(Nc1ccncc1)c1nnn(-c2ccc(-c3cnn(C4CC4)c3)cc2)c1C1CC1` [Compound 7-88]: 100 to 500 nM; `O=C(Nc1ccnc(N2CCOCC2)c1)c1nnn(-c2ccc(-c3ccccc3)cc2)c1C1CC1` [Compound 14-48]: 1000 to 3000 nM.

Take `COc1ccccc1-c1ccc(-n2nnc(C(=O)Nc3ccncc3)c2C2CC2)cc1C` [Compound 7-261]: the IC50 lay in the range of 500 to 1000 nM. The result for `CCc1ccc(C2(NC(=O)c3nnn(-c4ccc(-c5c(C)nn(CC)c5C)cc4)c3C3CC3)CC2)cn1` [Compound 9-31] reads 1000 to 3000 nM. Consider `CCn1nc(C)c(-c2ccc(-n3nnc(C(=O)Nc4ccnc(C)c4)c3C3CC3)c(F)c2)c1C` [Compound 7-219], for which the IC50 is less than 100 nM. The result for `CCn1cc(CNC(=O)c2nnn(-c3ccc(-c4c(C)nn(C)c4C)cc3)c2C(C)C)cn1` [Compound 17-11] reads less than 100 nM; that for `O=C(Nc1ccncc1)c1nnn(-c2ccc(O)cc2)c1C1CC1` [Compound 4-5], 1000 to 3000 nM. Next, `Cc1nn(C)cc1-c1ccc(-n2nnc(C(=O)Nc3ccncc3)c2C2CC2)cc1` [Compound 7-72]: 100 to 500 nM. The result for `Cc1c(-c2ccc(-n3nnc(C(=O)Nc4ccncc4)c3C3CC3)cc2)c(C(F)(F)F)nn1C` [Compound 7-47] reads 100 to 500 nM; that for `CN(C)Cc1cccc(-c2ccc(-n3nnc(C(=O)Nc4ccncc4)c3C3CC3)cc2)c1` [Compound 7-146], 500 to 1000 nM. For the compound `CS(=O)(=O)Nc1ccc(NC(=O)c2nnn(-c3ccc(-c4ccccc4)cc3)c2C2CC2)cc1` [Compound 14-19], the IC50 lay in the range of 500 to 1000 nM. As for `Cc1nn(C)c(C)c1-c1cccc(-n2nnc(C(=O)Nc3ccncc3)c2C2CC2)c1` [Compound 7-325], the IC50 was 1000 to 3000 nM. The result for `Cc1ncccc1CNC(=O)c1nnn(-c2ccc(-c3ccc(CC#N)cc3)cc2)c1C1CC1` [Compound 16-2] reads 100 to 500 nM; that for `Cc1nn(C)c(C)c1-c1ccc(-n2nnc(C(=O)NCc3nc4ccccc4n3C)c2C2CC2)cc1` [Compound 7-209], 1000 to 3000 nM.

In turn, `N#Cc1ccc(-c2ccc(-n3nnc(C(=O)NC4(c5cccnc5)CC4)c3C3CC3)c(F)c2)cc1` [Compound 22-2] gave an IC50 of 500 to 1000 nM. Next, `CCn1cc(C2(NC(=O)c3nnn(-c4ccc(-c5ccccc5)cc4)c3C3CC3)CC2)cn1` [Compound 18-12]: 1000 to 3000 nM. Next, `Cc1ccc(-n2nnc(C(=O)Nc3ccncc3F)c2C2CC2)cc1` [Compound 1-9]: 1000 to 3000 nM.

`CCn1nccc1-c1ccc(-n2nnc(C(=O)Nc3ccncc3)c2C2CC2)cc1` [Compound 7-92] registered an IC50 of 100 to 500 nM. The result for `Cc1cc(NC(=O)c2nnn(-c3ccc(-c4ccc(C#N)cc4C)cc3)c2C2CC2)ccn1` [Compound 7-52] reads 100 to 500 nM; that for `CS(=O)(=O)c1cccc(-c2ccc(-n3nnc(C(=O)Nc4ccncc4)c3C3CC3)cc2)c1` [Compound 7-71], 100 to 500 nM. `CCc1cc(-n2nnc(C(=O)Nc3ccncc3)c2C2CC2)ccc1C` [Compound 5-4, 5-cyclopropyl-1-(3-ethyl-4-methylphenyl)-N-(pyridin-4-yl)-1H-1,2,3-triazole-4-carboxamide] showed an IC50 of 500 to 1000 nM.

Regarding `Cn1cc(-c2ccc(-n3nnc(C(=O)Nc4ccncc4)c3C3CC3)cc2)cn1` [Compound 7-126], the IC50 is 500 to 1000 nM. The result for `Cc1cc(C#N)ccc1-c1ccc(-n2nnc(C(=O)Nc3ccncc3)c2C2CC2)cc1` [Compound 7-15] reads less than 100 nM.

Values taken from US20260001871A1, “TRIAZOLE DERIVATIVES AS MODULATORS OF MAS-RELATED G-PROTEIN RECEPTOR D” (ESCIENT PHARMACEUTICALS, INC., priority 2022, published 2026).
